Source: PubChem BioAssay (NCI)
Several values for one entry are separate records, joined by “and”; a condition that tells them apart may be missing. Equal entries are not always repeated.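 All cell lines were grown in 96-well plates and treated with compound for 48 hours. Abbreviation: GI50, concentration required for 50% inhibition of growth. The concentration for full growth arrest is given as TGI.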

test system: COLO 205 colon; assay: NCI anticancer screen, dose series, 48 h

| Compound | GI50 | TGI |
| --- | --- | --- |
| CC(C)=CCC1=C(O)c2ccccc2C(=O)C1=O | 18.4 µM and 52.3 µM and 28.8 µM | 37.5 µM and > 100 µM |
| O=[N+]([O-])c1ccccc1N=Nc1c(O)[nH]c2c(Cl)cc(Cl)cc12 |  | > 100 µM |
| NC(=S)N/N=C/c1ncccc1O | 3.48 µM | > 431 µM |
| C=C(CN(C)Cc1ccccc1)c1ccc(NC(=O)c2ccc(C(=C)CN(C)Cc3ccccc3)cc2)cc1 | > 100 µM | > 100 µM |
| O=C(CC(=O)Nc1ccccc1)NNC(Sc1ccccc1)c1cc(N=Nc2ccc(Br)cc2)ccc1O (centres undefined) |  | > 10 µM |
| Cc1cc(C(=O)CSC(=S)SC(C)(C)C)ccc1Cl |  | 33.1 µM |
| C=CC12CCN(CC1)C(C(O)c1ccnc3ccc(OC)cc13)C2 (centres undefined) | 94.8 µM | > 100 µM |
| O=C(Nc1nc(-c2c[nH]c3ccccc23)cs1)c1n[nH]c(=O)c2ccccc12 | 2.47 µM | > 60.1 µM |
| CN(C)CCN1CCC(Cc2ccccc2)CC1 | > 80 µM | > 80 µM |
| COc1cc2c3c(n(C)c(=O)c2cc1OC)-c1cc2c(cc1C3=O)OCO2 |  | > 100 µM |
| COc1ccc(/C=C\c2cc(OC)c(OC)c(OC)c2)cc1OCC(=O)O |  | > 100 µM |
| CCSc1nc(N=Cc2ccccc2O)c2cn[nH]c2n1 | 30.7 µM | > 100 µM |
| CSC[C@H](NC(=O)COc1cccc2cnccc12)C(=O)NC(Cc1ccccc1)C(O)C(=O)N1CSC[C@H]1C(=O)NC(C)(C)C (some centres undefined) |  | > 100 µM |
| O=C(Nc1ncc(Cc2cccc(C(F)(F)F)c2)s1)c1ccc2c(c1)OCCO2 | 0.282 µM | 1.54 µM |
| CNc1cc2oc(=O)cc(C)c2cc1C |  | > 100 µM |

test system: LOX IMVI melanoma; assay: NCI anticancer screen, dose series, 48 h

| Compound | GI50 | TGI |
| --- | --- | --- |
| Nc1c(C(=O)Nc2ccccn2)sc2nc3c(cc12)C(=O)CCC3 | 4.18 µM | > 100 µM |
| Cc1nc2c(Br)cc(Br)cc2c(=O)n1-c1nnc(-c2cccc(Cl)c2Cl)c(N)n1 | 12.9 µM | 39.9 µM |
| N#CC(I)CS(=O)(=O)c1ccccc1 (centres undefined) | 14.8 µM | 28.3 µM |
| COc1ccc2c(=O)oc3c(OC)cc(CCN(C)C)c4c(=O)oc1c2c34 | 17 µM and 7.81 µM | 31.3 µM and 18 µM |
| COc1ccc(Cl)cc1NC(=O)c1ccc(NC2=C(Cl)C(=O)N(Cc3ccccc3)C2=O)cc1 | 8.5 µM | > 100 µM |
| Cc1cccc(NC2=C(Cl)C(=O)c3nc(C)ccc3C2=O)c1 | 0.351 µM | 1.46 µM |
| COc1cc2c(cc1OCCCN1CCN(CCCOc3cc4c(cc3OC)C(=O)N3CC(F)(F)C[C@H]3C=N4)CC1)N=C[C@@H]1CC(F)(F)CN1C2=O | 1.89 µM | 4.83 µM |
| CCCCCCCCSC1=C(Cl)C(=O)C(OC)=C(OC)C1=O |  | 24 µM |
| COC(=O)C1=CN(CC2=CC(=O)C(C)=CC2=O)C=C(C(=O)OC)C1c1ccccc1OC | 21.4 µM | 42.9 µM |
| COc1cccc2c1O/C(=C\c1ccc([N+](=O)[O-])s1)C2=O | 3.15 µM | > 100 µM |
| COC(=O)/C=C/c1cc(OC(C)=O)c2c(c1)C(C(=O)OC)C(c1ccc(OC(C)=O)c(OC(C)=O)c1)O2 (centres undefined) | 0.0597 µM | > 83.3 µM |
| O=C(O)c1ccc(CNCc2ccccc2)cc1 |  | > 100 µM |
| CCOC(=O)Nc1c(C)nc2ccccn12 | > 100 µM | > 100 µM |
| CC(C)=CCC1=C(O)c2ccccc2C(=O)C1=O |  | > 100 µM |
| O=[N+]([O-])c1ccccc1N=Nc1c(O)[nH]c2c(Cl)cc(Cl)cc12 |  | > 100 µM |
| NC(=S)N/N=C/c1ncccc1O | 5.29 µM | 98.7 µM and 54.6 µM |
| C=C(CN(C)Cc1ccccc1)c1ccc(NC(=O)c2ccc(C(=C)CN(C)Cc3ccccc3)cc2)cc1 | 94.8 µM | > 100 µM |
| O=C(CC(=O)Nc1ccccc1)NNC(Sc1ccccc1)c1cc(N=Nc2ccc(Br)cc2)ccc1O (centres undefined) |  | > 10 µM |
| Cc1cc(C(=O)CSC(=S)SC(C)(C)C)ccc1Cl |  | 45 µM |
| C=CC12CCN(CC1)C(C(O)c1ccnc3ccc(OC)cc13)C2 (centres undefined) | 15.4 µM | > 100 µM |
| O=C(Nc1nc(-c2c[nH]c3ccccc23)cs1)c1n[nH]c(=O)c2ccccc12 | 0.644 µM | 17.9 µM |
